Experimental data as given in ChEMBL document CHEMBL1135359, “Antifungal sordarins. Synthesis and structure-activity relationships of 3',4'-fused dioxolane and dioxane derivatives” (2002).
Values after ≈ are worked out from the molar mass of the structure shown.

Columns and labels:
Assay type in all cases: functional
Kluyveromyces marxianus = experiment: In vitro antifungal activity for Candida pseudotropicalis 2371E
Candida albicans [1] = experiment: In vitro antifungal activity for Candida albicans 2005E
Nakaseomyces glabratus = experiment: In vitro antifungal activity for Candida glabrata 2375E
Candida tropicalis = experiment: In vitro antifungal activity for Candida tropicalis 2808E
Candida albicans [2] = experiment: In vitro antifungal activity for Candida albicans 2402E
Candida albicans [3] = experiment: In vitro antifungal activity for Candida albicans 4711E
Cryptococcus neoformans = experiment: In vitro antifungal activity for Cryptococcus neoformans 2867E

SMILES	MIC (Kluyveromyces marxianus)	MIC (Candida albicans [1])	MIC (Nakaseomyces glabratus)	MIC (Candida tropicalis)	MIC (Candida albicans [2])	MIC (Candida albicans [3])	MIC (Cryptococcus neoformans)
CC(C)C1=CC2CC3(C=O)[C@@H]4CC[C@@H](C)[C@H]4CC2(CO[C@H]2C[C@@H]4OC(=S)O[C@@H]4[C@@H](C)O2)C13C(=O)O (stereo partly specified)	1 µg/mL (≈ 1.98 µM)	2 µg/mL (≈ 3.96 µM)	16 µg/mL (≈ 31.7 µM)	125 µg/mL (≈ 248 µM)	8 µg/mL (≈ 15.9 µM)	2 µg/mL (≈ 3.96 µM)	8 µg/mL (≈ 15.9 µM)
CC(C)C1=CC2CC3(C=O)[C@@H]4CC[C@@H](C)[C@H]4CC2(CO[C@@H]2C[C@@H]4OC(C)(C)O[C@@H]4[C@@H](C)O2)C13C(=O)O (stereo partly specified)	4 µg/mL (≈ 7.96 µM)	2 µg/mL (≈ 3.98 µM)	> 125 µg/mL	16 µg/mL (≈ 31.8 µM)		4 µg/mL (≈ 7.96 µM)	> 125 µg/mL
CC(C)C1=CC2CC3(C=O)[C@@H]4CC[C@@H](C)[C@H]4CC2(CO[C@H]2C[C@@H]4OCO[C@@H]4[C@@H](C)O2)C13C(=O)O (stereo partly specified)	0.03 µg/mL (≈ 0.0632 µM)	0.015 µg/mL (≈ 0.0316 µM)	16 µg/mL (≈ 33.7 µM)	0.25 µg/mL (≈ 0.527 µM)	0.015 µg/mL (≈ 0.0316 µM)	0.03 µg/mL (≈ 0.0632 µM)	0.5 µg/mL (≈ 1.05 µM)
CC1OC2[C@H](O)[C@H](OCC34C[C@@H]5[C@H](C)CC[C@H]5C5(C=O)CC3C=C(C(C)C)C45C(=O)O)O[C@H](C)[C@H]2O1 (single isomer, unassigned)	0.5 µg/mL (≈ 0.991 µM)	0.03 µg/mL (≈ 0.0595 µM)	62 µg/mL (≈ 123 µM)	1 µg/mL (≈ 1.98 µM)		0.5 µg/mL (≈ 0.991 µM)	16 µg/mL (≈ 31.7 µM)
CC(C)C1=CC2CC3(C=O)[C@@H]4CC[C@@H](C)[C@H]4CC2(CO[C@@H]2O[C@H](C)[C@H]4OC(C)(C)OC4[C@H]2O)C13C(=O)O (single isomer, unassigned)	2 µg/mL (≈ 3.86 µM)	2 µg/mL (≈ 3.86 µM)	> 125 µg/mL	31 µg/mL (≈ 59.8 µM)	8 µg/mL (≈ 15.4 µM)	8 µg/mL (≈ 15.4 µM)	> 125 µg/mL
CC(C)C1=CC2CC3(C=O)[C@@H]4CC[C@@H](C)[C@H]4CC2(CO[C@@H]2O[C@H](C)[C@H]4OC(C)(C)OC4[C@@H]2O)C13C(=O)O (single isomer, unassigned)	0.06 µg/mL (≈ 0.116 µM)	0.12 µg/mL (≈ 0.231 µM)	31 µg/mL (≈ 59.8 µM)	1 µg/mL (≈ 1.93 µM)	0.5 µg/mL (≈ 0.964 µM)	0.12 µg/mL (≈ 0.231 µM)	125 µg/mL (≈ 241 µM)
CC(C)C1=CC2CC3(C=O)[C@@H]4CC[C@@H](C)[C@H]4CC2(CO[C@H]2C[C@@H]4OC(=O)O[C@@H]4[C@@H](C)O2)C13C(=O)O (stereo partly specified)	1 µg/mL (≈ 2.05 µM)	1 µg/mL (≈ 2.05 µM)	8 µg/mL (≈ 16.4 µM)	2 µg/mL (≈ 4.09 µM)	4 µg/mL (≈ 8.19 µM)	2 µg/mL (≈ 4.09 µM)	16 µg/mL (≈ 32.7 µM)
CC(C)C1=CC2CC3(C=O)[C@@H]4CC[C@@H](C)[C@H]4CC2(CO[C@@H]2O[C@H](C)[C@H]4OC(=S)OC4[C@@H]2O)C13C(=O)O (single isomer, unassigned)	31 µg/mL (≈ 59.5 µM)	31 µg/mL (≈ 59.5 µM)	125 µg/mL (≈ 240 µM)	> 125 µg/mL	62 µg/mL (≈ 119 µM)	62 µg/mL (≈ 119 µM)	16 µg/mL (≈ 30.7 µM)
CC(C)C1=CC2CC3(C=O)[C@@H]4CC[C@@H](C)[C@H]4CC2(CO[C@H]2C[C@@H]4OC(C)(C)CO[C@@H]4[C@@H](C)O2)C13C(=O)O (stereo partly specified)	0.03 µg/mL (≈ 0.0581 µM)	0.015 µg/mL (≈ 0.029 µM)	> 125 µg/mL	1 µg/mL (≈ 1.94 µM)	0.12 µg/mL (≈ 0.232 µM)	0.25 µg/mL (≈ 0.484 µM)	31 µg/mL (≈ 60 µM)
CC1O[C@H]2[C@H](C[C@H](OCC34C[C@@H]5[C@H](C)CC[C@H]5C5(C=O)CC3C=C(C(C)C)C45C(=O)O)O[C@@H]2C)O1 (stereo partly specified)	0.004 µg/mL (≈ 0.00819 µM)	< 0.001 µg/mL	8 µg/mL (≈ 16.4 µM)	0.03 µg/mL (≈ 0.0614 µM)		< 0.001 µg/mL	31 µg/mL (≈ 63.4 µM)
CC(C)C1=CC2CC3(C=O)[C@@H]4CC[C@@H](C)[C@H]4CC2(CO[C@H]2C[C@@H]4OC(C)(C)O[C@@H]4[C@@H](C)O2)C13C(=O)O (stereo partly specified)	0.004 µg/mL (≈ 0.00796 µM)	< 0.001 µg/mL	31 µg/mL (≈ 61.7 µM)	0.12 µg/mL (≈ 0.239 µM)	0.008 µg/mL (≈ 0.0159 µM)	0.004 µg/mL (≈ 0.00796 µM)	8 µg/mL (≈ 15.9 µM)
C/C=C/C=C(\C)C(=O)O[C@H]1[C@H](O)[C@H](OCC23C[C@@H]4[C@H](C)CC[C@H]4C4(C=O)CC2C=C(C(C)C)C34C(=O)O)O[C@H](C)[C@H]1OC (stereo partly specified)	0.03 µg/mL (≈ 0.0499 µM)	0.015 µg/mL (≈ 0.025 µM)	> 125 µg/mL	0.06 µg/mL (≈ 0.0999 µM)	0.03 µg/mL (≈ 0.0499 µM)	0.25 µg/mL (≈ 0.416 µM)	0.25 µg/mL (≈ 0.416 µM)
